Test results from PMC11189555, “Aryl amino acetamides prevent Plasmodium falciparum ring development via targeting the lipid-transfer protein PfSTART1” (Nature Communications, 2024).
Read-outs that look alike come from different tables or passages of the source.

Columns and labels:
[1] = tested on: PopE-F10 M-833 resistant clone (PfSTART1 N330K); experiment: Growth inhibition assay (72 h, LDH activity); assay type: cell-based, Plasmodium falciparum; design: sample/DMSO: scale not given here; details: for EC50: Plasmodium falciparum, 72 h; for EC50 / Fold change compared to 3D7: Supplementary Table 1; for EC50 / resistance of the line compared with 3D7: PopE-F10 (N330K); for resistance of the line compared with 3D7: Fig 4B; for Fold change compared to 3D7: EC50 on PopE-F10 vs 3D7
Protocol: The drug was then removed, and parasites were allowed to recover. Another cycle of drug treatment (3 μM M-833) was then resumed. The resistant lines were cloned out by limiting dilution (diluting the culture into a 96-well plate to achieve an average of ~0.3 parasites per well), prior to growth inhibition assays and genomic DNA (gDNA) extraction (DNeasy Blood and Tissue kit (Qiagen)[18].
Parasite growth assays with inhibitory compounds were performed as per[11] and are fully described in the Supplementary Information. […]
Growth inhibition assays. Synchronised ring-stage parasites (0.3-0.6% parasitemia, 2% haematocrit) were grown for 72 h in a serial-dilution of the compound under […]
and compound 4. Note that M-833 was first purchased from MolPort (MolPort -002-267-916) then made in-house at WEHI: the differences observed in EC50s across experiments are attributed to the different batches of M -833. For some experiments, 0, 0.25 or 2.5 mM of glucosamine (GlcN) was also added. Experiments were set up in technical duplicates or triplicates. Following a freeze -thaw cycle, lactate dehydrogenase (LDH) activity was assessed as an indicator of parasite growt h 5. 30 μL of parasite culture was incubated for 30 min in the dark with 75 μL Malstat mixture (0.1 M Tris pH 9.0, 20 g/L lactic acid, pH 7.5, 0.2% Triton-X100, 0.5 g/L acetylpyridine adenine dinucleotide (APAD, Sigma), 200 μg/mL nitroblue tetrazolium (NBT; Sigma), 1 μg/mL phenozine ethosulfate (PES; Sigma)). Absorbance was then measured at 650 nm, transformed using the formula below, plotted against the logarithm of the concentrations, and a non-linear regression (log(inhibitor) vs. response, variable slope) was calculated using GraphPad Prism to assess the half-inhibitory […]
Growth inhibition % = (1 − average(sample)− average(uRBC)) ∗ 100 […]
The DMSO samples were also used to assess growth of parasite in the presence of 0.25 and 2.5 mM GlcN (normalised by DMSO in 0 mM GlcN). […]

[2] = target: T1, recombinant PfSTART1(WT) (I149-V394) (Plasmodium falciparum, UniProt Q8I298); experiment: Isothermal titration calorimetry; assay type: binding; details: for Differential Power DP_Y / ΔH NDH_Y: PfSTART(WT), ITC replicate data
T1 construct: START domain alone (I149-V394 from PF3D7_0104200); 8xHis tag (N); TEV protease cleavage site (N); made in house; host or cells: Sf21 insect cells (baculovirus)
T1 sequence (Q8I298 entry or part of it): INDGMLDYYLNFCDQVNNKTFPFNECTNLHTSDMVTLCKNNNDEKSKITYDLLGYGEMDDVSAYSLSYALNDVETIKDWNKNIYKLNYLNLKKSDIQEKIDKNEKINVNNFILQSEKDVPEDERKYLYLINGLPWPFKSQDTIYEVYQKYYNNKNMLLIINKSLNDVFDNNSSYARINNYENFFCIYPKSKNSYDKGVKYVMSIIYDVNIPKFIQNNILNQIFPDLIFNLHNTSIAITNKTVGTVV
Description: Codon optimised (Spodoptera frugiperda, Sf) START domain alone (I149-V394 from PF3D7_0104200) was synthesised by Integrated DNA Technologies and cloned into a modified baculovirus transfer vector (pAcGP67-A) with a N-terminal GP67-signal sequence, 8xHis tag, and TEV protease cleavage site. Recombinant baculovirus was generated via the flashBACTM Baculovirus Expression System using Sf21 cells (Life Technologies), amplified to reach a third passage viral stock, and 1.5% used to infect Sf21 for protein expression. After incubation for three days at 28 °C, media containing secreted protein was harvested by centrifugation and supplemented with 50 mM Tris pH 7.5, 20 mM MgCl2, 100 mM NaCl, and 10-20 mM imidazole. The supplemented protein sample was purified by nickel affinity chromatography (HisTrap Excel 5 mL, Cytiva), and eluted with 20 mM Tris pH 7.5, 500 mM NaCl, 300-500 mM imidazole. Eluted fractions were further purified using size-exclusion chromatography (Superdex S75 16/600 or Superdex 10/300, Cytiva) with the column pre-equilibrated with 20 mM HEPES pH 7.5, 150 mM NaCl, and peak-containing fractions concentrated and stored at -80 °C until required. If required, prior to ITC, a second size-exclusion chromatography step was performed to remove soluble aggregates.
ITC experiments were performed on a MicroCal PEAQ-ITC calorimeter at 25 °C, with a stirring speed of 750 rpm and a reference power of 5 μcal/sec. 500 μM M-833 series inhibitor solutions were diluted to 10 μM in 50 mM NaPO4^-3 (pH 7.4), 150 mM NaCl with a final DMSO concentration of 2% (v/v) (cell sample). PfSTART1 protein was dialysed extensively against 50 mM NaPO4^-3 (pH 7.4), 150 mM NaCl, before diluting to 90 μM in the same buffer with 2% (v/v) DMSO (syringe sample). The first injection was 0.4 μL over a 0.8 s duration, and the remaining 19 injections were 2 μL of 4 s duration, with 150 s injection spacing. Data were collected and analysed using the PEAQ-ITC software (MicroCal) and fit by a single site binding model. A fitted offset (constant control heat) was also applied to the integrated heat.

CC(C)(Nc1ccc(Cl)c(S(=O)(=O)N2CCOCC2)c1)C(=O)Nc1ccc(F)c(Cl)c1 [W-991]
EC50 ([1]; read-out: EC50): > 200 nM | resistance of the line compared with 3D7 [1]: highly resistant | (av-uRBC) / (DMSO-uRBC) x100 ([1]; PopE-F10, 0.0762079 nM, biological replicate 1): 96.1179 | (av-uRBC) / (DMSO-uRBC) x100 ([1]; PopE-F10, 0.0762079 nM, biological replicate 2): 104.725 | (av-uRBC) / (DMSO-uRBC) x100 ([1]; PopE-F10, 0.0762079 nM, biological replicate 3): 92.7129 | (av-uRBC) / (DMSO-uRBC) x100 ([1]; PopE-F10, 0.228624 nM, biological replicate 1): 102.983 | (av-uRBC) / (DMSO-uRBC) x100 ([1]; PopE-F10, 0.228624 nM, biological replicate 2): 105.368 | (av-uRBC) / (DMSO-uRBC) x100 ([1]; PopE-F10, 0.228624 nM, biological replicate 3): 109.575 | (av-uRBC) / (DMSO-uRBC) x100 ([1]; PopE-F10, 0.685871 nM, biological replicate 1): 97.996 | (av-uRBC) / (DMSO-uRBC) x100 ([1]; PopE-F10, 0.685871 nM, biological replicate 2): 105.748 | (av-uRBC) / (DMSO-uRBC) x100 ([1]; PopE-F10, 0.685871 nM, biological replicate 3): 95.4244 | (av-uRBC) / (DMSO-uRBC) x100 ([1]; PopE-F10, 2.05761 nM, biological replicate 1): 96.037 | (av-uRBC) / (DMSO-uRBC) x100 ([1]; PopE-F10, 2.05761 nM, biological replicate 2): 105.199 | (av-uRBC) / (DMSO-uRBC) x100 ([1]; PopE-F10, 2.05761 nM, biological replicate 3): 105.366 | (av-uRBC) / (DMSO-uRBC) x100 ([1]; PopE-F10, 6.17284 nM, biological replicate 1): 97.8882 | (av-uRBC) / (DMSO-uRBC) x100 ([1]; PopE-F10, 6.17284 nM, biological replicate 2): 105.604 | (av-uRBC) / (DMSO-uRBC) x100 ([1]; PopE-F10, 6.17284 nM, biological replicate 3): 97.9523 | (av-uRBC) / (DMSO-uRBC) x100 ([1]; PopE-F10, 18.5185 nM, biological replicate 1): 96.9806 | (av-uRBC) / (DMSO-uRBC) x100 ([1]; PopE-F10, 18.5185 nM, biological replicate 2): 104.615 | (av-uRBC) / (DMSO-uRBC) x100 ([1]; PopE-F10, 18.5185 nM, biological replicate 3): 86.3579 | (av-uRBC) / (DMSO-uRBC) x100 ([1]; PopE-F10, 55.5556 nM, biological replicate 1): 92.6042 | (av-uRBC) / (DMSO-uRBC) x100 ([1]; PopE-F10, 55.5556 nM, biological replicate 2): 99.4928 | (av-uRBC) / (DMSO-uRBC) x100 ([1]; PopE-F10, 55.5556 nM, biological replicate 3): 87.996 | (av-uRBC) / (DMSO-uRBC) x100 ([1]; PopE-F10, 166.667 nM, biological replicate 1): 76.4288 | (av-uRBC) / (DMSO-uRBC) x100 ([1]; PopE-F10, 166.667 nM, biological replicate 2): 88.6391 | (av-uRBC) / (DMSO-uRBC) x100 ([1]; PopE-F10, 166.667 nM, biological replicate 3): 66.2195 | (av-uRBC) / (DMSO-uRBC) x100 ([1]; PopE-F10, 500 nM, biological replicate 1): 33.5999 | (av-uRBC) / (DMSO-uRBC) x100 ([1]; PopE-F10, 500 nM, biological replicate 2): 49.6703 | (av-uRBC) / (DMSO-uRBC) x100 ([1]; PopE-F10, 500 nM, biological replicate 3): 27.1431 | Fold change compared to 3D7 [1]: > 278 fold | Kd ([2]; ITC, 25 °C, 90 µM PfSTART1 titrated into 10 µM compound, n = 2, ± SD): 10 ± 7 nM | ΔH ([2]; ITC, 25 °C, n = 2, ± SD): -12.8 ± 0.1 kcal/mol | −TΔS ([2]; ITC, 25 °C, n = 2, ± SD): 1.8 ± 0.6 kcal/mol | Differential Power DP_Y ([2]; DP_X 0.083333): -0.000146 | Differential Power DP_Y ([2]; DP_X 0.1): 9.8e-5 | ΔH NDH_Y ([2]; NDH_X 0.104703): -13.8427 | ΔH NDH_Y ([2]; NDH_X 0.192876): -12.6755

CN(C(=O)C(C)(C)Nc1ccc(Cl)c(S(=O)(=O)N2CCOCC2)c1)c1ccc(F)c(Cl)c1 [compound 4]
EC50 [1]: 13800 nM | resistance of the line compared with 3D7 [1]: No change in EC50 | sample/DMSO ([1]; PopE-F10, 0.00152416 uM, biological replicate 3): -10.997 | sample/DMSO ([1]; PopE-F10, 0.00304832 uM, biological replicate 1): -14.4828 | sample/DMSO ([1]; PopE-F10, 0.00457247 uM, biological replicate 3): -14.249 | sample/DMSO ([1]; PopE-F10, 0.00914495 uM, biological replicate 1): -25.5172 | sample/DMSO ([1]; PopE-F10, 0.0137174 uM, biological replicate 3): -22.0582 | sample/DMSO ([1]; PopE-F10, 0.0274348 uM, biological replicate 1): -44.0394 | sample/DMSO ([1]; PopE-F10, 0.0411523 uM, biological replicate 3): -25.9307 | sample/DMSO ([1]; PopE-F10, 0.078125 uM, biological replicate 2): -21.3563 | sample/DMSO ([1]; PopE-F10, 0.0823045 uM, biological replicate 1): -49.1626 | sample/DMSO ([1]; PopE-F10, 0.123457 uM, biological replicate 3): -32.7771 | sample/DMSO ([1]; PopE-F10, 0.15625 uM, biological replicate 2): -19.0708 | sample/DMSO ([1]; PopE-F10, 0.246914 uM, biological replicate 1): -58.8177 | sample/DMSO ([1]; PopE-F10, 0.3125 uM, biological replicate 2): -21.7123 | sample/DMSO ([1]; PopE-F10, 0.37037 uM, biological replicate 3): -39.4309 | sample/DMSO ([1]; PopE-F10, 0.625 uM, biological replicate 2): -9.966 | sample/DMSO ([1]; PopE-F10, 0.740741 uM, biological replicate 1): -40.7882 | sample/DMSO ([1]; PopE-F10, 1.11111 uM, biological replicate 3): -43.6671 | sample/DMSO ([1]; PopE-F10, 1.25 uM, biological replicate 2): -1.293 | sample/DMSO ([1]; PopE-F10, 2.22222 uM, biological replicate 1): -40.4926 | sample/DMSO ([1]; PopE-F10, 2.5 uM, biological replicate 2): 7.269 | sample/DMSO ([1]; PopE-F10, 3.33333 uM, biological replicate 3): -37.5053 | sample/DMSO ([1]; PopE-F10, 5 uM, biological replicate 2): 28.3814 | sample/DMSO ([1]; PopE-F10, 6.66667 uM, biological replicate 1): -11.4286 | sample/DMSO ([1]; PopE-F10, 10 uM, biological replicate 2): 46.5155 | sample/DMSO ([1]; PopE-F10, 10 uM, biological replicate 3): 5.884 | sample/DMSO ([1]; PopE-F10, 20 uM, biological replicate 1): 42.9557 | sample/DMSO ([1]; PopE-F10, 20 uM, biological replicate 2): 83.0461 | Fold change compared to 3D7 [1]: 1.4 fold | interaction with PfSTART1(WT) ([2]; ITC): did not interact
